Among the test systems are MDA-MB-435; IGROV1 ovarian; M14 melanoma; NCI-H23 lung; SK-MEL-28 melanoma; UACC-257 melanoma; RXF 393 renal; KM12 colon; U251 CNS; SW-620 colon.
Test in all cases: NCI anticancer screen, dose series, 48 h

Several values for one entry are separate records, joined by “and”; a condition that tells them apart may be missing. Identical values can stand only once.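 How tested: cells in 96-well plates exposed to compound for 48 hours at five concentrations. Here, GI50 denotes the concentration required for 50% inhibition of growth. TGI marks complete inhibition of growth.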 Some results are limits rather than exact numbers.

`CCN(Cc1ccc(F)cc1F)c1ccc(CO)c(Cl)c1`: the GI50 in the test with MDA-MB-435 was 21 µM; with IGROV1 ovarian, 0.105 µM; in the test on M14 melanoma it was 20.3 µM; with NCI-H23 lung, 9.05 µM; in the test with SK-MEL-28 melanoma, 14.1 µM; with UACC-257 melanoma, 0.128 µM. Further, the GI50 with RXF 393 renal was 2.26 µM; with KM12 colon it was 16.6 µM; with U251 CNS it was 0.641 µM; in the test on SW-620 colon it was 0.917 µM. The TGI in the test on MDA-MB-435 is greater than 59.6 µM; in the test with IGROV1 ovarian it was 0.518 µM; in the test with M14 melanoma, greater than 55.6 µM; with NCI-H23 lung it was 24.3 µM; with SK-MEL-28 melanoma it was 27.7 µM; in the test on UACC-257 melanoma, 0.372 µM. The TGI in the test with RXF 393 renal was 14.5 µM; with KM12 colon, 32.9 µM; in the test with U251 CNS, 18.8 µM; in the test with SW-620 colon, greater than 45.6 µM.

In the case of `COc1ccc(/C=C/C(=O)/C=C(/C=C/c2ccc(OC)c(OC)c2)OB(F)F)cc1OC`, the GI50 with MDA-MB-435 is 0.522 µM; in the test on IGROV1 ovarian, 0.486 µM; in the test with M14 melanoma it was 0.519 µM; with NCI-H23 lung it was 1.33 µM; in the test with SK-MEL-28 melanoma it was 1.18 µM; in the test on UACC-257 melanoma, 1.76 µM. Besides, the GI50 is 0.34 µM with RXF 393 renal, 1.78 µM with KM12 colon, 0.807 µM in the test on U251 CNS and 0.373 µM with SW-620 colon. The TGI with MDA-MB-435 came out at 3.89 µM; in the test with IGROV1 ovarian, 4.41 µM; in the test on M14 melanoma, 3.55 µM; in the test on NCI-H23 lung it was 4.17 µM; in the test with SK-MEL-28 melanoma it was 3.1 µM; in the test with UACC-257 melanoma, 5.55 µM. Also, the TGI in the test on RXF 393 renal was 1.31 µM; in the test on KM12 colon it was 3.95 µM; in the test with U251 CNS, 2.31 µM; in the test with SW-620 colon it was 2.33 µM.

Take `Clc1ccc(N2COOC3(OOC2)C2CC4CC(C2)CC3C4)cc1`: the GI50 is 1.61 µM with MDA-MB-435; 1.81 µM in the test with IGROV1 ovarian; 1.48 µM with M14 melanoma; 11.5 µM with NCI-H23 lung; greater than 30.8 µM in the test with SK-MEL-28 melanoma; greater than 54.4 µM in the test on UACC-257 melanoma. Besides, the GI50 was 6.96 µM in the test on RXF 393 renal, 2.02 µM in the test with KM12 colon and 11.9 µM in the test with U251 CNS. For the same molecule, the TGI was 13.2 µM in the test on MDA-MB-435; 6.22 µM in the test on IGROV1 ovarian; greater than 100 µM in the test with M14 melanoma; 31.6 µM with NCI-H23 lung; greater than 100 µM in the test on SK-MEL-28 melanoma; greater than 100 µM with UACC-257 melanoma. The TGI was greater than 59.3 µM in the test on RXF 393 renal, greater than 100 µM with KM12 colon, 32.9 µM in the test with U251 CNS and greater than 57.8 µM in the test with SW-620 colon.

As for `Cc1c(C(=O)CCl)c(=O)n(-c2ccccc2)n1C`, the GI50 is 2.57 µM with MDA-MB-435; 2.19 µM in the test on IGROV1 ovarian; 3.13 µM with M14 melanoma; 5.17 µM in the test on NCI-H23 lung; 3.27 µM in the test with SK-MEL-28 melanoma; 2.58 µM with UACC-257 melanoma. Moreover, the GI50 in the test on RXF 393 renal is 1.76 µM; in the test on KM12 colon, 10.4 µM; in the test with U251 CNS, 11.4 µM; in the test with SW-620 colon it was 2.7 µM. The TGI in the test on MDA-MB-435 came to 11.5 µM; in the test on IGROV1 ovarian it was 6.92 µM; in the test on M14 melanoma, 15.4 µM; with NCI-H23 lung, 21.1 µM; in the test with SK-MEL-28 melanoma, 11.6 µM; with UACC-257 melanoma it was 16.3 µM. The TGI in the test with RXF 393 renal was found to be 6.11 µM; with KM12 colon, 22.6 µM; in the test on U251 CNS, 26.2 µM; in the test with SW-620 colon, 8.54 µM.

Regarding `CCOC(=O)Oc1c(OC)cc(C(=O)c2ccc(OC)c(OC(=O)CCl)c2OC)cc1OC`, the GI50 was 0.239 µM with MDA-MB-435; 3.36 µM in the test on IGROV1 ovarian; 0.491 µM in the test with M14 melanoma; 3.86 µM with NCI-H23 lung; 2.31 µM in the test on SK-MEL-28 melanoma; 66.6 µM in the test with UACC-257 melanoma. Further, the GI50 in the test on RXF 393 renal was 1.54 µM; in the test with KM12 colon it was 0.543 µM; with U251 CNS, 0.926 µM; in the test on SW-620 colon, 0.455 µM. Further, the TGI is 0.773 µM in the test on MDA-MB-435; greater than 100 µM in the test with IGROV1 ovarian; greater than 100 µM with M14 melanoma; greater than 100 µM in the test with NCI-H23 lung; greater than 100 µM with SK-MEL-28 melanoma; greater than 100 µM with UACC-257 melanoma. Besides, the TGI in the test with RXF 393 renal is 8.08 µM; with KM12 colon it was greater than 100 µM; in the test with U251 CNS it was greater than 100 µM; in the test with SW-620 colon, greater than 100 µM.

For the molecule `O=P(Oc1ccccc1)(Oc1ccccc1)C(O)c1ccccc1` (centres undefined), the GI50 is 74 µM with MDA-MB-435; 37.2 µM in the test with IGROV1 ovarian; greater than 100 µM in the test with M14 melanoma; greater than 100 µM in the test on NCI-H23 lung; 85.7 µM with SK-MEL-28 melanoma; 36.5 µM in the test on UACC-257 melanoma. Further, the GI50 in the test with RXF 393 renal is 60.6 µM; in the test with KM12 colon, 51 µM; in the test with U251 CNS it was 48.9 µM; with SW-620 colon, greater than 100 µM. Moreover, the TGI in the test on MDA-MB-435, in the test with IGROV1 ovarian, in the test with M14 melanoma, in the test with NCI-H23 lung, in the test with SK-MEL-28 melanoma and in the test with UACC-257 melanoma was greater than 100 µM in each case. The TGI in the test with RXF 393 renal, in the test with KM12 colon, in the test on U251 CNS and with SW-620 colon was greater than 100 µM in each case.

Turning to `COC(=O)/C=C1\SC(=Nc2ccc(C(F)(F)F)cc2)N(CCc2c[nH]c3ccccc23)C1=O`, the GI50 in the test with MDA-MB-435 was 1.56 µM; in the test on IGROV1 ovarian it was 1.82 µM; in the test with M14 melanoma, 1.46 µM; with NCI-H23 lung it was 1.76 µM; in the test on SK-MEL-28 melanoma it was 1.87 µM; with UACC-257 melanoma, 1.67 µM. In addition, the GI50 was 1.43 µM in the test on RXF 393 renal, 1.74 µM in the test with KM12 colon, 1.63 µM in the test with U251 CNS and 1.57 µM in the test on SW-620 colon. For the same molecule, the TGI came to 3.03 µM with MDA-MB-435; 3.59 µM in the test with IGROV1 ovarian; 2.9 µM in the test with M14 melanoma; 3.64 µM in the test with NCI-H23 lung; 3.55 µM in the test on SK-MEL-28 melanoma; 3.18 µM in the test with UACC-257 melanoma. Besides, the TGI stood at 2.98 µM in the test with RXF 393 renal, 3.62 µM in the test with KM12 colon, 2.99 µM in the test on U251 CNS and 3.29 µM in the test with SW-620 colon.

For `O=C(O)C1CCCN1Cc1c[nH]c2ccccc12` (centres undefined), the TGI in the test on MDA-MB-435, with IGROV1 ovarian, in the test on M14 melanoma, with NCI-H23 lung, in the test with SK-MEL-28 melanoma and in the test on UACC-257 melanoma was greater than 100 µM each time. The TGI with RXF 393 renal, in the test with KM12 colon, in the test on U251 CNS and in the test on SW-620 colon was greater than 100 µM each time.

Turning to `O=C1NC(=O)[C@@H](c2cn3c4c(cccc24)CCC3)[C@@H]1c1c[nH]c2ccccc12`, the GI50 in the test with MDA-MB-435 is 0.146 µM and 0.125 µM; with IGROV1 ovarian it was 0.592 µM and 0.833 µM; with M14 melanoma, 0.31 µM and 0.372 µM; in the test on NCI-H23 lung, 0.545 µM and 0.53 µM; in the test with SK-MEL-28 melanoma it was 1.04 µM and 0.66 µM; in the test with UACC-257 melanoma, 0.712 µM and 2.51 µM. In addition, the GI50 in the test on RXF 393 renal is 0.294 µM and 0.332 µM; with KM12 colon, 0.382 µM and 0.433 µM; with U251 CNS, 0.391 µM and 0.451 µM; with SW-620 colon, 0.391 µM and 0.354 µM. The TGI in the test with MDA-MB-435 was 0.431 µM and 0.367 µM; in the test with IGROV1 ovarian, > 10 µM and 23.2 µM; with M14 melanoma, > 10 µM and 10.8 µM; with NCI-H23 lung, > 10 µM and 16.8 µM; in the test with SK-MEL-28 melanoma, > 10 µM and 19.6 µM; with UACC-257 melanoma, > 10 µM and 29.8 µM. In addition, the TGI with RXF 393 renal was > 10 µM and 2.91 µM; in the test on KM12 colon, > 10 µM and 6.15 µM; with U251 CNS, > 10 µM and 12.9 µM; in the test on SW-620 colon, > 10 µM and 15.2 µM.

Regarding `COc1ccc(C(=O)c2cc(OC)c(OC)c(OC)c2)cc1/C=C/C(=O)c1ccc(O)cc1`, the GI50 with MDA-MB-435 is 1.18 µM; with IGROV1 ovarian, 9.94 µM; in the test with M14 melanoma it was 1.98 µM; in the test on NCI-H23 lung, 2.93 µM; in the test with SK-MEL-28 melanoma, 4.75 µM; with UACC-257 melanoma it was 7.77 µM. The GI50 was 3.57 µM in the test with RXF 393 renal, 2.44 µM with KM12 colon, 4.58 µM in the test with U251 CNS and 2.51 µM with SW-620 colon. For the same molecule, the TGI with MDA-MB-435 was 11.3 µM; in the test on IGROV1 ovarian, 34.8 µM; in the test on M14 melanoma, 5.86 µM; in the test on NCI-H23 lung, 10.2 µM; with SK-MEL-28 melanoma it was 17.5 µM; in the test on UACC-257 melanoma, 26.6 µM. The TGI in the test with RXF 393 renal amounted to 14.9 µM; with KM12 colon, 7.05 µM; in the test with U251 CNS, 18.3 µM; in the test with SW-620 colon it was 10.2 µM.

For `CCOC(=O)c1sc2ncn(Cc3cccc(Cl)c3)c(=O)c2c1C`, the GI50 in the test with MDA-MB-435 was 13.9 µM; in the test on IGROV1 ovarian, 8.89 µM; in the test on M14 melanoma it was 15.4 µM; in the test with NCI-H23 lung it was 14.7 µM; in the test with SK-MEL-28 melanoma it was 16.8 µM; in the test with UACC-257 melanoma, 15.6 µM. Also, the GI50 is 16.6 µM in the test on RXF 393 renal, 13.7 µM with KM12 colon, 12.9 µM in the test on U251 CNS and 18.1 µM in the test on SW-620 colon. The TGI in the test on MDA-MB-435 came to 26.9 µM; with IGROV1 ovarian, 21.2 µM; in the test on M14 melanoma, 28.7 µM; with NCI-H23 lung it was 27.9 µM; in the test with SK-MEL-28 melanoma it was 30.4 µM; in the test on UACC-257 melanoma it was 29.3 µM. Also, the TGI amounted to 30.2 µM in the test with RXF 393 renal, 37.9 µM with KM12 colon, 25.6 µM in the test on U251 CNS and 32 µM in the test on SW-620 colon.

The values above are taken from PubChem BioAssay (NCI).
